Experimental data: PubChem BioAssay AID256 (DTP/NCI, 2004)
Values joined by “and” are separate entries in the source; they are usually repeats but may differ in a detail not shown here. Identical values can stand only once. Inconclusive results and toxic doses are left out.

Test system: CD2F1 mice, L1210 leukemia ip, survival T/C
Assay: NCI In Vivo Anticancer Drug Screen. Data for tumor model L1210 Leukemia (intraperitoneal) in CD2F1 (CDF1) mice
Settings: endpoint: mean survival time, higher = longer survival
How it was run: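 Antitumor effect is scored in animals hosting a serially transplanted tumor. Values compare compound-dosed animals against vehicle-only controls as a simple quotient.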

[1] = dose: 100.0 mg/kg/injection, schedule: Q01DX001 (ip), vehicle: other
[2] = dose: 100.0 mg/kg/injection, schedule: Q01DX009 (ip), vehicle: saline with Tween-80
[3] = dose: 200.0 mg/kg/injection, schedule: Q01DX009 (ip), vehicle: saline with Tween-80
[4] = dose: 400.0 mg/kg/injection, schedule: Q01DX009 (ip), vehicle: saline with Tween-80
[5] = dose: 100.0 mg/kg/injection, schedule: Q01DX001 (ip), vehicle: saline
[6] = dose: 200.0 mg/kg/injection, schedule: Q01DX001 (ip), vehicle: saline
[7] = dose: 400.0 mg/kg/injection, schedule: Q01DX001 (ip), vehicle: saline
[8] = dose: 100.0 mg/kg/injection, schedule: Q04DX003 (ip), vehicle: saline with Tween-80
[9] = dose: 25.0 mg/kg/injection, schedule: Q04DX003 (ip), vehicle: saline with Tween-80
[10] = dose: 50.0 mg/kg/injection, schedule: Q04DX003 (ip), vehicle: saline with Tween-80

In the case of N#Cc1cccc(/C=C/c2ccc(S(=O)(=O)F)cc2)c1, the T/C [1] is reported as 95 % of control and 102 % of control, the T/C (dose: 100.0 mg/kg/injection, schedule: Q04DX002 (ip), vehicle: other) is reported as 92 % of control and 98 % of control and the T/C (dose: 100.0 mg/kg/injection, schedule: Q04DX003 (ip), vehicle: other) is reported as 100 % of control and 111 % of control. For the same compound, the T/C (dose: 200.0 mg/kg/injection, schedule: Q01DX001 (ip), vehicle: other) was 88 % of control and 102 % of control, the T/C (dose: 200.0 mg/kg/injection, schedule: Q04DX002 (ip), vehicle: other) was 101 % of control and 107 % of control and the T/C (dose: 200.0 mg/kg/injection, schedule: Q04DX003 (ip), vehicle: other) was 99 % of control and 105 % of control. For the same compound, the T/C (dose: 400.0 mg/kg/injection, schedule: Q01DX001 (ip), vehicle: other) was 92 % of control and 103 % of control and the T/C (dose: 400.0 mg/kg/injection, schedule: Q04DX002 (ip), vehicle: other) was 93 % of control and 107 % of control.
With c1ccc2c(c1)nnc1ccccc12 the T/C [2] was 100 % of control, the T/C [3] was 110 % of control and the T/C [4] was 110 % of control.
For O=c1[nH]c(SCc2ccccc2)nc(-c2ccc(Cl)cc2)c1CCO, the T/C (dose: 100.0 mg/kg/injection, schedule: Q01DX009 (ip), vehicle: Klucel (hydroxypropylcellulose) (HPC)) was 87 % of control, the T/C (dose: 200.0 mg/kg/injection, schedule: Q01DX009 (ip), vehicle: Klucel (hydroxypropylcellulose) (HPC)) was 89 % of control and the T/C (dose: 400.0 mg/kg/injection, schedule: Q01DX009 (ip), vehicle: Klucel (hydroxypropylcellulose) (HPC)) was 88 % of control.
For ONc1nc(NO)c2[nH]cnc2n1, the T/C (dose: 2.3 mg/kg/injection, schedule: Q01DX001 (ip), vehicle: other) was 124 % of control, the T/C (dose: 3.5 mg/kg/injection, schedule: Q01DX001 (ip), vehicle: other) was 122 % of control and the T/C (dose: 8.0 mg/kg/injection, schedule: Q01DX001 (ip), vehicle: other) was 160 % of control and 168 % of control. The T/C (dose: 12.5 mg/kg/injection, schedule: Q01DX001 (ip), vehicle: other) was 153 % of control, the T/C (dose: 29.0 mg/kg/injection, schedule: Q01DX001 (ip), vehicle: other) was 156 % of control and the T/C (dose: 44.0 mg/kg/injection, schedule: Q01DX001 (ip), vehicle: other) was 153 % of control and 172 % of control. The T/C (dose: 66.0 mg/kg/injection, schedule: Q01DX001 (ip), vehicle: other) was 190 % of control, the T/C [1] was 202 % of control and the T/C (dose: 150.0 mg/kg/injection, schedule: Q01DX001 (ip), vehicle: other) was 182 % of control.
O=c1[nH]c(=S)[nH]c(-c2ccccc2)c1Cc1c(O)ccc2ccccc12 was tested, and the T/C [5] was 101 % of control, the T/C [6] was 100 % of control and the T/C [7] was 97 % of control.
For COC(=O)C(C)NC(=O)OCc1ccccc1 (stereo unspecified), the T/C [8] was 96 % of control, the T/C (dose: 200.0 mg/kg/injection, schedule: Q04DX003 (ip), vehicle: saline with Tween-80) was 98 % of control and the T/C (dose: 400.0 mg/kg/injection, schedule: Q04DX003 (ip), vehicle: saline with Tween-80) was 101 % of control.
In the case of OCC1OC(Sc2cc(Cl)ccc2Cl)C(O)C(O)C1O (stereo unspecified), the T/C [5] is reported as 103 % of control, the T/C [6] is reported as 100 % of control and the T/C [7] is reported as 100 % of control.
Cc1c2ccncc2c(C)c2c1[nH]c1ccc(Br)cc12 was tested, and the T/C (dose: 50.0 mg/kg/injection, schedule: Q04DX003 (ip), vehicle: saline) was 101 % of control, the T/C (dose: 100.0 mg/kg/injection, schedule: Q04DX003 (ip), vehicle: saline) was 101 % of control and the T/C (dose: 200.0 mg/kg/injection, schedule: Q04DX003 (ip), vehicle: saline) was 103 % of control. For the same compound, the T/C (dose: 400.0 mg/kg/injection, schedule: Q04DX003 (ip), vehicle: saline) was 103 % of control.
In the case of NOCc1nnc(Nc2ccccc2)s1, the T/C [5] is reported as 100 % of control, the T/C [6] is reported as 97 % of control and the T/C [7] is reported as 96 % of control.
C=CCOC1C=CCCC1 (stereo unspecified) was tested, and the T/C (dose: 100.0 mg/kg/injection, schedule: Q04DX002 (ip), vehicle: saline) was 100 % of control, the T/C (dose: 200.0 mg/kg/injection, schedule: Q04DX002 (ip), vehicle: saline) was 100 % of control and the T/C (dose: 400.0 mg/kg/injection, schedule: Q04DX002 (ip), vehicle: saline) was 91 % of control.
Cc1ccc(Cl)c(I)c1 was tested, and the T/C (dose: 100.0 mg/kg/injection, schedule: Q01DX001 (ip), vehicle: Klucel (hydroxypropylcellulose) (HPC)) was 101 % of control, the T/C (dose: 200.0 mg/kg/injection, schedule: Q01DX001 (ip), vehicle: Klucel (hydroxypropylcellulose) (HPC)) was 103 % of control and the T/C (dose: 400.0 mg/kg/injection, schedule: Q01DX001 (ip), vehicle: Klucel (hydroxypropylcellulose) (HPC)) was 106 % of control.
For S=c1nn[nH]n1C1CCCCC1, the T/C [9] was 96 % of control, the T/C [10] was 98 % of control and the T/C [8] was 92 % of control.
For NC(CCC(=O)Nc1cccc2ccccc12)C(=O)O (stereo unspecified), the T/C (dose: 50.0 mg/kg/injection, schedule: Q01DX009 (ip), vehicle: saline with Tween-80) was 98 % of control, the T/C [2] was 107 % of control and the T/C [3] was 104 % of control.
With CC(=O)/C(=C\c1ccccc1)CNC1CCCCC1 the T/C (dose: 6.25 mg/kg/injection, schedule: Q01DX001 (ip), vehicle: saline with Tween-80) was 96 % of control and the T/C (dose: 12.5 mg/kg/injection, schedule: Q01DX001 (ip), vehicle: saline with Tween-80) was 104 % of control.
CCCCCCCCCCC(CCCCCCCCCC)c1ccccc1 was tested, and the T/C (dose: 100.0 mg/kg/injection, schedule: Q01DX001 (ip), vehicle: saline sonified) was 108 % of control, the T/C (dose: 200.0 mg/kg/injection, schedule: Q01DX001 (ip), vehicle: saline sonified) was 104 % of control and the T/C (dose: 400.0 mg/kg/injection, schedule: Q01DX001 (ip), vehicle: saline sonified) was 114 % of control.
For Cc1c[n+]([O-])ccc1Br, the T/C (dose: 25.0 mg/kg/injection, schedule: Q01DX009 (ip), vehicle: water) was 94 % of control, the T/C (dose: 50.0 mg/kg/injection, schedule: Q01DX009 (ip), vehicle: water) was 100 % of control and the T/C (dose: 100.0 mg/kg/injection, schedule: Q01DX009 (ip), vehicle: water) was 88 % of control.
For CCCCNC(C)(C)C(SSC(c1cccs1)C(C)(C)NCCCC)c1cccs1 (stereo unspecified), the T/C [9] was 97 % of control, the T/C [10] was 101 % of control and the T/C [8] was 98 % of control.
With O=C1C2C3CCC(O3)C2C(=O)N1CO (stereo unspecified) the T/C (dose: 25.0 mg/kg/injection, schedule: Q04DX002 (ip), vehicle: saline with Tween-80) was 110 % of control, the T/C (dose: 50.0 mg/kg/injection, schedule: Q04DX002 (ip), vehicle: saline with Tween-80) was 98 % of control and the T/C (dose: 100.0 mg/kg/injection, schedule: Q04DX002 (ip), vehicle: saline with Tween-80) was 91 % of control.
O=S1(=O)CC=CC1 was tested, and the T/C [2] was 98 % of control, the T/C (dose: 100.0 mg/kg/injection, schedule: Q04DX003 (ip), vehicle: saline sonified) was 103 % of control and the T/C [3] was 101 % of control. The T/C (dose: 200.0 mg/kg/injection, schedule: Q04DX003 (ip), vehicle: saline sonified) was 106 % of control, the T/C [4] was 101 % of control and the T/C (dose: 400.0 mg/kg/injection, schedule: Q04DX003 (ip), vehicle: saline sonified) was 95 % of control.
With COC(=O)CSc1n[nH]c(=O)[nH]c1=O the T/C (dose: 12.5 mg/kg/injection, schedule: Q01DX005 (ip), vehicle: distilled water + Tween-80) was 97 % of control, the T/C (dose: 25.0 mg/kg/injection, schedule: Q01DX005 (ip), vehicle: distilled water + Tween-80) was 100 % of control and the T/C (dose: 50.0 mg/kg/injection, schedule: Q01DX005 (ip), vehicle: distilled water + Tween-80) was 103 % of control. The T/C (dose: 100.0 mg/kg/injection, schedule: Q01DX005 (ip), vehicle: distilled water + Tween-80) was 94 % of control and the T/C (dose: 200.0 mg/kg/injection, schedule: Q01DX005 (ip), vehicle: distilled water + Tween-80) was 92 % of control.
CCC12C=CCN3CCC4(c5cc(C6c7[nH]c8ccccc8c7CCN7CCCCC67)c(OC)cc5N(C)C4C(O)(C(=O)OC)C1OC(C)=O)C32 (stereo unspecified) was tested, and the T/C (dose: 0.06 mg/kg/injection, schedule: Q01DX009 (ip), vehicle: other) was 93 % of control, the T/C (dose: 0.13 mg/kg/injection, schedule: Q01DX009 (ip), vehicle: other) was 93 % of control and the T/C (dose: 0.25 mg/kg/injection, schedule: Q01DX009 (ip), vehicle: other) was 92 % of control. For the same compound, the T/C (dose: 0.5 mg/kg/injection, schedule: Q01DX009 (ip), vehicle: other) was 95 % of control, the T/C (dose: 1.0 mg/kg/injection, schedule: Q01DX009 (ip), vehicle: other) was 90 % of control and the T/C (dose: 2.0 mg/kg/injection, schedule: Q01DX009 (ip), vehicle: other) was 93 % of control. The T/C (dose: 4.0 mg/kg/injection, schedule: Q01DX009 (ip), vehicle: other) was 93 % of control.
N#CC1c2ccccc2C=CN1C(=O)OCC(Cl)(Cl)Cl (stereo unspecified) was tested, and the T/C (dose: 100.0 mg/kg/injection, schedule: Q04DX003 (ip), vehicle: Klucel (hydroxypropylcellulose) (HPC)) was 102 % of control, the T/C (dose: 200.0 mg/kg/injection, schedule: Q04DX003 (ip), vehicle: Klucel (hydroxypropylcellulose) (HPC)) was 102 % of control and the T/C (dose: 400.0 mg/kg/injection, schedule: Q04DX003 (ip), vehicle: Klucel (hydroxypropylcellulose) (HPC)) was 103 % of control.
